test system: ring stage parasites; test: Parasite growth potency assay, 72 hours, LDH readout; format: cell-based; conditions: 72 h, parasite growth measured by LDH assay after 72 hours at 37° C.; 0.7% rings, 2% haematocrit; read-out: EC50
Summary of the method: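 Parasite growth was quantified by LDH assay after a −80 °C freeze-thaw. Before that, compound was incubated for 72 h at 37 °C under humidified gas with ring-stage cultures adjusted to 0.7% parasitemia and 2% haematocrit in serum- and albumax-supplemented RPMI-Hepes.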

Point of comparison: `CCC1(CC)CC(=O)N(Cc2ccc(F)c(C(=O)N[C@H]3CCOc4ccccc43)c2)C(=N)N1` [Example 21, [1-[[3-[[(4S)-chroman-4-yl]carbamoyl]-4-fluoro-phenyl]methyl]-4,4-diethyl-6-oxo-hexahydropyrimidin-2-ylidene]ammonium; 2,2,2-trifluoroacetate], EC50 3.5 nM. Against it:
- CCC1(CC)CC(=O)N([C@H](CCOC)c2cccc(C(=O)N[C@@H]3c4ccccc4C[C@H]3O)c2)C(=N)N1 [Example 2, 3-((R)-1-(4,4-diethyl-2-imino-6-oxotetrahydropyrimidin-1(2H)-yl)-3-methoxypropyl)-N-((1R,2R)-2-hydroxy-2,3-dihydro-1H-inden-1-yl)benzamide] — 2.7-fold lower, 1.3 nM
- CC(C)[C@]1(C)CC(=O)N(Cc2cccc(C(=O)N[C@H]3CCOc4ccccc43)c2)C(=N)N1 [Example 3, [(4S)-1-[[3-[[(4S)-chroman-4-yl]carbamoyl]phenyl]methyl]-4-isopropyl-4-methyl-6-oxo-hexahydropyrimidin-2-ylidene]ammonium; 2,2,2-trifluoroacetate] — 1.8-fold higher, 6.2 nM
- CCC1(CC)CC(=O)N([C@H](c2ccccc2)c2cccc(C(=O)N[C@H]3CCOc4ccccc43)c2)C(=N)N1 [Example 4A, [1-[[3-[[(4S)-chroman-4-yl]carbamoyl]phenyl]-phenyl-methyl]-4,4-diethyl-6-oxo-hexahydropyrimidin-2-ylidene]ammonium; 2,2,2-trifluoroacetate] — 8.8-fold lower, 0.4 nM
- CCC1(CC)CC(=O)N([C@H](c2ccccc2)c2cccc(C(=O)N[C@@H]3CCOc4ccccc43)c2)C(=N)N1 [Example 4B, [1-[[3-[[(4R)-chroman-4-yl]carbamoyl]phenyl]-phenyl-methyl]-4,4-diethyl-6-oxo-hexahydropyrimidin-2-ylidene]ammonium; 2,2,2-trifluoroacetate] — 10-fold higher, 35.4 nM
- N=C1N[C@@](CC2CC2)(c2ccccc2)CC(=O)N1Cc1cc(F)cc(C(=O)N[C@H]2CCOc3ccccc32)c1 [Example 5A, [(4R)-1-[[3-[[(4S)-chroman-4-yl]carbamoyl]-5-fluoro-phenyl]methyl]-4-(cyclopropylmethyl)-6-oxo-4-phenyl-hexahydropyrimidin-2-ylidene]ammonium; 2,2,2-trifluoroacetate] — 4.6-fold higher, 16.2 nM
- N=C1N[C@@](CC2CC2)(c2ccccc2)CC(=O)N1Cc1cc(F)cc(C(=O)N[C@@H]2CCOc3ccccc32)c1 [Example 5B, [(4R)-1-[[3-[[(4R)-chroman-4-yl]carbamoyl]-5-fluoro-phenyl]methyl]-4-(cyclopropylmethyl)-6-oxo-4-phenyl-hexahydropyrimidin-2-ylidene]ammonium; 2,2,2-trifluoroacetate] — 16-fold higher, 57.4 nM
- N=C1N[C@@](CC2CC2)(c2ccccc2)CC(=O)N1Cc1cccc(C(=O)N[C@H]2CCOc3ccccc32)c1 [Example 6A, [(4R)-1-[[3-[[(4S)-chroman-4-yl]carbamoyl]phenyl]methyl]-4-(cyclopropylmethyl)-6-oxo-4-phenyl-hexahydropyrimidin-2-ylidene]ammonium; 2,2,2-trifluoroacetate] — 17-fold higher, 58.8 nM
- N=C1N[C@@](CC2CC2)(c2ccccc2)CC(=O)N1Cc1cccc(C(=O)N[C@@H]2CCOc3ccccc32)c1 [Example 6B, [(4R)-1-[[3-[[(4R)-chroman-4-yl]carbamoyl]phenyl]methyl]-4-(cyclopropylmethyl)-6-oxo-4-phenyl-hexahydropyrimidin-2-ylidene]ammonium; 2,2,2-trifluoroacetate] — 24-fold higher, 83.9 nM
- C[C@H](c1cccc(C(=O)N[C@H]2CCOc3ccccc32)c1)N1C(=N)N[C@@](CC2CC2)(c2ccccc2)CC1=O [Example 7, [(4R)-1-[1-[3-[[(4S)-chroman-4-yl]carbamoyl]phenyl]ethyl]-4-(cyclopropylmethyl)-6-oxo-4-phenyl-hexahydropyrimidin-2-ylidene]ammonium; 2,2,2-trifluoroacetate] — 11-fold higher, 39.2 nM
- N=C1N[C@@](CC2CC2)(c2ccccc2)CC(=O)N1[C@H](c1cccnc1)c1cccc(C(=O)N[C@H]2CCOc3ccccc32)c1 [Example 8, [(4R)-1-[[3-[[(4S)-chroman-4-yl]carbamoyl]phenyl]-pyridin-1-ium-3-yl-methyl]-4-(cyclopropylmethyl)-6-oxo-4-phenyl-hexahydropyrimidin-2-ylidene]ammonium; 2,2,2-trifluoroacetate] — within 1.5-fold, 4.2 nM
- CC(C)[C@]1(C)CC(=O)N([C@H](c2ccccc2)c2cccc(C(=O)N[C@H]3CCOc4ccccc43)c2)C(=N)N1 [Example 9A, [(4S)-1-[(R)-[3-[[(4S)-chroman-4-yl]carbamoyl]phenyl]-phenyl-methyl]-4-isopropyl-4-methyl-6-oxo-hexahydropyrimidin-2-ylidene]ammonium; 2,2,2-trifluoroacetate] — 7-fold lower, 0.5 nM
- CC(C)[C@]1(C)CC(=O)N([C@H](c2ccccc2)c2cccc(C(=O)N[C@@H]3CCOc4ccccc43)c2)C(=N)N1 [Example 9B, [(4S)-1-[(R)-[3-[[(4R)-chroman-4-yl]carbamoyl]phenyl]-phenyl-methyl]-4-isopropyl-4-methyl-6-oxo-hexahydropyrimidin-2-ylidene]ammonium; 2,2,2-trifluoroacetate] — 5.5-fold higher, 19.2 nM
- CC(C)[C@]1(C)CC(=O)N(Cc2cccc(C(=O)N[C@@H]3c4ccccc4C[C@H]3O)c2)C(=N)N1 [Example 10, [(4S)-1-[[3-[[(1R,2R)-2-hydroxyindan-1-yl]carbamoyl]phenyl]methyl]-4-isopropyl-4-methyl-6-oxo-hexahydropyrimidin-2-ylidene]ammonium; 2,2,2-trifluoroacetate] — 2.3-fold higher, 7.9 nM
- CCC1(CC)CC(=O)N(Cc2cccc(C(=O)N[C@H]3CCOc4ccccc43)c2)C(=N)N1 [Example 11, [1-[[3-[[(4S)-chroman-4-yl]carbamoyl]phenyl]methyl]-4,4-diethyl-6-oxo-hexahydropyrimidin-2-ylidene]ammonium; 2,2,2-trifluoroacetate] — 2.3-fold lower, 1.5 nM
- CCC1(CC)CC(=O)N(Cc2cc(F)cc(C(=O)N[C@H]3CCOc4ccccc43)c2)C(=N)N1 [Example 12, [1-[[3-[[(4S)-chroman-4-yl]carbamoyl]-5-fluoro-phenyl]methyl]-4,4-diethyl-6-oxo-hexahydropyrimidin-2-ylidene]ammonium; 2,2,2-trifluoroacetate] — 2.5-fold lower, 1.4 nM
- CCC[C@H](c1cccc(C(=O)N[C@H]2CCOc3ccccc32)c1)N1C(=N)NC(CC)(CC)CC1=O [Example 13A, [1-[1-[3-[[(4S)-chroman-4-yl]carbamoyl]phenyl]butyl]-4,4-diethyl-6-oxo-hexahydropyrimidin-2-ylidene]ammonium; 2,2,2-trifluoroacetate] — 12-fold lower, 0.3 nM
- CCC[C@@H](c1cccc(C(=O)N[C@H]2CCOc3ccccc32)c1)N1C(=N)NC(CC)(CC)CC1=O [Example 13B, [1-[1-[3-[[(4S)-chroman-4-yl]carbamoyl]phenyl]butyl]-4,4-diethyl-6-oxo-hexahydropyrimidin-2-ylidene]ammonium; 2,2,2-trifluoroacetate] — 13-fold higher, 43.8 nM
- CCC1(CC)CC(=O)N([C@H](CC(C)C)c2cccc(C(=O)N[C@H]3CCOc4ccccc43)c2)C(=N)N1 [Example 14A, [1-[1-[3-[[(4S)-chroman-4-yl]carbamoyl]phenyl]-3-methyl-butyl]-4,4-diethyl-6-oxo-hexahydropyrimidin-2-ylidene]ammonium; 2,2,2-trifluoroacetate] — 18-fold lower, 0.2 nM
- CCC1(CC)CC(=O)N([C@@H](CC(C)C)c2cccc(C(=O)N[C@H]3CCOc4ccccc43)c2)C(=N)N1 [Example 14B, [1-[1-[3-[[(4S)-chroman-4-yl]carbamoyl]phenyl]-3-methyl-butyl]-4,4-diethyl-6-oxo-hexahydropyrimidin-2-ylidene]ammonium; 2,2,2-trifluoroacetate] — 16-fold higher, 55 nM
- CCC1(CC)CC(=O)N(Cc2cccc(C(=O)N[C@@H]3c4ccccc4C[C@H]3O)c2)C(=N)N1 [Example 15, [4,4-diethyl-1-[[3-[[(1R,2R)-2-hydroxyindan-1-yl]carbamoyl]phenyl]methyl]-6-oxo-hexahydropyrimidin-2-ylidene]ammonium; 2,2,2-trifluoroacetate] — within 1.5-fold, 2.6 nM
- CCC1(CC)CC(=O)N([C@H](c2ccccc2)c2cccc(C(=O)N[C@@H]3c4ccccc4C[C@H]3O)c2)C(=N)N1 [Example 16, [4,4-diethyl-1-[[3-[[(1R,2R)-2-hydroxyindan-1-yl]carbamoyl]phenyl]-phenyl-methyl]-6-oxo-hexahydropyrimidin-2-ylidene]ammonium; 2,2,2-trifluoroacetate] — 12-fold lower, 0.3 nM
- N=C1N[C@@](CC2CC2)(c2ccccc2)CC(=O)N1Cc1cccc(C(=O)N[C@@H]2c3ccccc3C[C@H]2O)c1 [Example 17, [(4R)-4-(cyclopropylmethyl)-1-[[3-[[(1R,2R)-2-hydroxyindan-1-yl]carbamoyl]phenyl]methyl]-6-oxo-4-phenyl-hexahydropyrimidin-2-ylidene]ammonium; 2,2,2-trifluoroacetate] — within 1.5-fold, 3.7 nM
- CC(C)[C@]1(C)CC(=O)N(Cc2cccc(C(=O)N[C@@H]3c4ccccc4C[C@@H]3O)c2)C(=N)N1 [Example 18, [(4S)-1-[[3-[[(1R,2S)-2-hydroxyindan-1-yl]carbamoyl]phenyl]methyl]-4-isopropyl-4-methyl-6-oxo-hexahydropyrimidin-2-ylidene]ammonium; 2,2,2-trifluoroacetate] — 6.1-fold higher, 21.5 nM
- CCC1(CC)CC(=O)N([C@H](COC)c2cccc(C(=O)N[C@H]3CCOc4ccccc43)c2)C(=N)N1 [Example 19, [1-[1-[3-[[(4S)-chroman-4-yl]carbamoyl]phenyl]-2-methoxy-ethyl]-4,4-diethyl-6-oxo-hexahydropyrimidin-2-ylidene]ammonium; 2,2,2-trifluoroacetate] — 5.8-fold lower, 0.6 nM
- CCC1(CC)CC(=O)N(Cc2cccc(C(=O)N[C@H]3CCOc4ccccc43)c2F)C(=N)N1 [Example 20, [1-[[3-[[(4S)-chroman-4-yl]carbamoyl]-2-fluoro-phenyl]methyl]-4,4-diethyl-6-oxo-hexahydropyrimidin-2-ylidene]ammonium; 2,2,2-trifluoroacetate] — 3.1-fold higher, 10.9 nM
